# Measured values reported in paper PMC4490784, “Compensatory induction of MYC expression by sustained CDK9 inhibition via a BRD4-dependent mechanism” (eLife, 2015).
# Columns and labels:
# Assay in all cases: KINOMEscan binding assay
# RAF1 = biological target: T1, RAF1 (Homo sapiens, UniProt P04049); settings: read-out: % Retention on Solid Support
# T1 construct: purchased DiscoveRx KINOMEscan
# Method in brief: (§1)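 We profiled i-CDK9 by active-site-directed competitive binding, testing 1 µM and 10 µM against over 400 kinases.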
# GCN2(Kin.Dom.2,S808G) = biological target: T2, GCN2(Kin.Dom.2,S808G) (Homo sapiens, UniProt Q9P2K8, S808G); settings: read-out: % Retention on Solid Support
# T2 construct: GCN2(Kin.Dom.2,S808G); purchased DiscoveRx KINOMEscan
# T2 sequence (Q9P2K8 590-1001 S808G limits assumed): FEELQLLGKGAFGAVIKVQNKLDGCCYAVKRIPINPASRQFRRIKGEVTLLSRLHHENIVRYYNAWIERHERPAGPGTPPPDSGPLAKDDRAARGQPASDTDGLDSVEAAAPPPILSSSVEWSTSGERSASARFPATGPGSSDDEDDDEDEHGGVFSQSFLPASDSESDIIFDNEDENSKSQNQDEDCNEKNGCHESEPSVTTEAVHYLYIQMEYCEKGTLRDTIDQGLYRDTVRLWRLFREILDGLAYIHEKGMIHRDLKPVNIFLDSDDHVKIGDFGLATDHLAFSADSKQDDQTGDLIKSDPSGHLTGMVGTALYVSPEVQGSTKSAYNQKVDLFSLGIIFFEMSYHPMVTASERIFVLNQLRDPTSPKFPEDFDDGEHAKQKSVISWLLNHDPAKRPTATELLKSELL
# Method in brief: as §1
# ERBB3 = biological target: T3, ERBB3 (Homo sapiens, UniProt P21860); settings: read-out: % Retention on Solid Support
# T3 construct: purchased DiscoveRx KINOMEscan
# Method in brief: as §1
# MKNK2 = biological target: T4, MKNK2 (Homo sapiens, UniProt Q9HBH9); settings: read-out: % Retention on Solid Support
# T4 construct: purchased DiscoveRx KINOMEscan
# Method in brief: as §1
# ICK = biological target: T5, ICK (Homo sapiens, UniProt Q9UPZ9); settings: read-out: % Retention on Solid Support
# T5 construct: purchased DiscoveRx KINOMEscan
# Method in brief: as §1
# EGFR(G719C) = biological target: T6, EGFR(G719C) (Homo sapiens, UniProt P00533, G719C)
# T6 construct: purchased DiscoveRx KINOMEscan
# Method in brief: as §1
# CSK = biological target: T7, CSK (Homo sapiens, UniProt P41240)
# T7 construct: purchased DiscoveRx KINOMEscan
# Method in brief: as §1
# CLK1 = biological target: T8, CLK1 (Homo sapiens, UniProt P49759); settings: read-out: % Retention on Solid Support
# T8 construct: purchased DiscoveRx KINOMEscan
# T8 sequence (P49759 whole entry): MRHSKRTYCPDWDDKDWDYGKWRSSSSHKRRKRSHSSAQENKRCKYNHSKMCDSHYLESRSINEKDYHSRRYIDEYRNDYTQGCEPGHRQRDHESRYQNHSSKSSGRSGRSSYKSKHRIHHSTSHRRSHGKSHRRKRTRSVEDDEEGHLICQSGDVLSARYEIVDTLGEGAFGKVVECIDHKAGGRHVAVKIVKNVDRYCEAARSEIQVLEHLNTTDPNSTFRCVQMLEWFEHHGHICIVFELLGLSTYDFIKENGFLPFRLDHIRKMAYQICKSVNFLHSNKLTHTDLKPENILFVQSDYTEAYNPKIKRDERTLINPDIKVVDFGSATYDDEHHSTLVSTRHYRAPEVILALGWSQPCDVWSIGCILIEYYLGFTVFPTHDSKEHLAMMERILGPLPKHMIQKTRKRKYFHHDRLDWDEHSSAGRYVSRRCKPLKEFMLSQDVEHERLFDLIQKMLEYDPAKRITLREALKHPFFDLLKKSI
# Method in brief: as §1
# BLK = biological target: T9, BLK (Homo sapiens, UniProt P51451); settings: read-out: % Retention on Solid Support
# T9 construct: purchased DiscoveRx KINOMEscan
# T9 sequence (P51451 whole entry): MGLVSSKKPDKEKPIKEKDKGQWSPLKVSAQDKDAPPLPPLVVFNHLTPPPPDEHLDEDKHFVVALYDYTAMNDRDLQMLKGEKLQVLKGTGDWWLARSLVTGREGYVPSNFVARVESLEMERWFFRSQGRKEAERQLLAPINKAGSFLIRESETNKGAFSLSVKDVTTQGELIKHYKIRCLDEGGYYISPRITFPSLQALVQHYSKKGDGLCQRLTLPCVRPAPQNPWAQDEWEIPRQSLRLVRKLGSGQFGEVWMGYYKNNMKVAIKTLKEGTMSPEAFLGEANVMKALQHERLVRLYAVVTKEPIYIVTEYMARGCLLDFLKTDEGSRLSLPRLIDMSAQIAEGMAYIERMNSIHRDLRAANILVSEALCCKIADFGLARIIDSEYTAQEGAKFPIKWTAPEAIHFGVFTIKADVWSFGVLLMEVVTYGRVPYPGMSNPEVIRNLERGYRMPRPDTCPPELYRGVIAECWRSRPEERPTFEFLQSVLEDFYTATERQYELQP
# Method in brief: as §1
# EPHA7 = biological target: T10, EPHA7 (Homo sapiens, UniProt Q15375); settings: read-out: % Retention on Solid Support
# T10 construct: purchased DiscoveRx KINOMEscan
# Method in brief: as §1
# SYK = biological target: T11, SYK (Homo sapiens, UniProt P43405)
# T11 construct: purchased DiscoveRx KINOMEscan
# Method in brief: as §1
# MAP3K15 = biological target: T12, MAP3K15 (Homo sapiens, UniProt Q6ZN16); settings: read-out: % Retention on Solid Support
# T12 construct: purchased DiscoveRx KINOMEscan
# Method in brief: as §1
# KIT(D816V) = biological target: T13, KIT(D816V) (Homo sapiens, UniProt P10721, D816V); settings: read-out: % Retention on Solid Support
# T13 construct: purchased DiscoveRx KINOMEscan
# T13 sequence (P10721 26-976 D816V): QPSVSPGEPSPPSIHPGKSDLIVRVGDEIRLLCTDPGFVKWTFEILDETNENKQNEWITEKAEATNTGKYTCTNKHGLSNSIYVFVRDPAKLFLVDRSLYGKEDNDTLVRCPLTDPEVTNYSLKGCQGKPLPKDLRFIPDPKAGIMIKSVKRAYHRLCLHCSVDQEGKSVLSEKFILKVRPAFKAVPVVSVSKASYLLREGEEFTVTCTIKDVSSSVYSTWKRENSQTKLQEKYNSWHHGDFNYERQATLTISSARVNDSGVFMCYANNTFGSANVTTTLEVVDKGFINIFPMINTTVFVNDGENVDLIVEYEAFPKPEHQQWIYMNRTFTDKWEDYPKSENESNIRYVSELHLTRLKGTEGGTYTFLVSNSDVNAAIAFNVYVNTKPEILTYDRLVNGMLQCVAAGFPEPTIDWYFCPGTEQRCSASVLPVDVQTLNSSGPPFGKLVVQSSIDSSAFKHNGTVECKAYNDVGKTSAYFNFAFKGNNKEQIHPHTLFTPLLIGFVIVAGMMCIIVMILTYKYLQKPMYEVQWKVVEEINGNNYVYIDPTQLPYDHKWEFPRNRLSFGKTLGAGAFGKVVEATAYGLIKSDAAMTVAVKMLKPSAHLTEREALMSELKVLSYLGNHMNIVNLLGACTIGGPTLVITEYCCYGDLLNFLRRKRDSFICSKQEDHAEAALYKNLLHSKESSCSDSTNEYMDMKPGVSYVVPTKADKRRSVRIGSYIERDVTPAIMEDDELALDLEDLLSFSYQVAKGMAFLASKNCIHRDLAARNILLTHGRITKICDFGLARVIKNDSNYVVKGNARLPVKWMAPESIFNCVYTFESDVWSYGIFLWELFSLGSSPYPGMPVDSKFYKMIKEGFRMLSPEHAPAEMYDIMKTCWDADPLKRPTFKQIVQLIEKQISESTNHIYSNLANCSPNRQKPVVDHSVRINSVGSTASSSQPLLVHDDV
# Method in brief: as §1
# MLK1 = biological target: T14, MLK1 (Homo sapiens, UniProt P80192); settings: read-out: % Retention on Solid Support
# T14 construct: purchased DiscoveRx KINOMEscan
# Method in brief: as §1
# PFPK5(P.falciparum) = biological target: T15, PFPK5(P.falciparum) (Plasmodium falciparum, UniProt P61075); settings: 1 µM i-CDK9; read-out: % Retention on Solid Support
# T15 construct: purchased DiscoveRx KINOMEscan
# Method in brief: as §1
# DAPK2 = biological target: T16, DAPK2 (Homo sapiens, UniProt Q9UIK4); settings: read-out: % Retention on Solid Support
# T16 construct: purchased DiscoveRx KINOMEscan
# T16 sequence (Q9UIK4 whole entry): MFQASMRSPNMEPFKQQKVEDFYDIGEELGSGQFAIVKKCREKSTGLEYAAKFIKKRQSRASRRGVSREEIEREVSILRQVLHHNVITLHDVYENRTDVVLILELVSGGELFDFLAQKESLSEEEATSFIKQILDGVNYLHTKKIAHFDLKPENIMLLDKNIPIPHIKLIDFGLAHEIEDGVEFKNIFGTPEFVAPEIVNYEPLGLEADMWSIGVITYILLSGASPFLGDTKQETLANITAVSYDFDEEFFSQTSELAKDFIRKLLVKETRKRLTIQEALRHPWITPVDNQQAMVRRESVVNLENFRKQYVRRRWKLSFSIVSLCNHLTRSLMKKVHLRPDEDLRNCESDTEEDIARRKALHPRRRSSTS
# Method in brief: as §1
# CAMKK2 = biological target: T17, CAMKK2 (Homo sapiens, UniProt Q96RR4); settings: read-out: % Retention on Solid Support
# T17 construct: purchased DiscoveRx KINOMEscan
# Method in brief: as §1
# DYRK2 = biological target: T18, DYRK2 (Homo sapiens, UniProt Q92630); settings: read-out: % Retention on Solid Support
# T18 construct: purchased DiscoveRx KINOMEscan
# T18 sequence (Q92630 1-601): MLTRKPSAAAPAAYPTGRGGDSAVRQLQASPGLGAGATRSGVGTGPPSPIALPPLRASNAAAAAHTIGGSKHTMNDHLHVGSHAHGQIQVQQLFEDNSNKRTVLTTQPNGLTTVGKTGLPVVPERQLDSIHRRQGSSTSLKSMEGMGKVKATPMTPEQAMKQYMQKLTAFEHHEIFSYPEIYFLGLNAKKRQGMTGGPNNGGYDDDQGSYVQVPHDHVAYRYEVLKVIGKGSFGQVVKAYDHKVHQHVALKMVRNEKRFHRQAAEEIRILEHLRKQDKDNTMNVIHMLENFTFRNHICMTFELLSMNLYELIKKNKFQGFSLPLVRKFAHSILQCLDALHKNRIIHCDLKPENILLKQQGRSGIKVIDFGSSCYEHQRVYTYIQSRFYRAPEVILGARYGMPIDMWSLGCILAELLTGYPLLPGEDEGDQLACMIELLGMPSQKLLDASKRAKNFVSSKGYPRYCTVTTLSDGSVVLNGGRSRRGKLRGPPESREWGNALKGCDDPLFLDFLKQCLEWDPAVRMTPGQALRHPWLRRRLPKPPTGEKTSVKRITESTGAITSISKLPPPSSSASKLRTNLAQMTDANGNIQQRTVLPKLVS
# Method in brief: as §1
# MAP4K3 = biological target: T19, MAP4K3 (Homo sapiens, UniProt Q8IVH8)
# T19 construct: purchased DiscoveRx KINOMEscan
# T19 sequence (Q8IVH8 whole entry): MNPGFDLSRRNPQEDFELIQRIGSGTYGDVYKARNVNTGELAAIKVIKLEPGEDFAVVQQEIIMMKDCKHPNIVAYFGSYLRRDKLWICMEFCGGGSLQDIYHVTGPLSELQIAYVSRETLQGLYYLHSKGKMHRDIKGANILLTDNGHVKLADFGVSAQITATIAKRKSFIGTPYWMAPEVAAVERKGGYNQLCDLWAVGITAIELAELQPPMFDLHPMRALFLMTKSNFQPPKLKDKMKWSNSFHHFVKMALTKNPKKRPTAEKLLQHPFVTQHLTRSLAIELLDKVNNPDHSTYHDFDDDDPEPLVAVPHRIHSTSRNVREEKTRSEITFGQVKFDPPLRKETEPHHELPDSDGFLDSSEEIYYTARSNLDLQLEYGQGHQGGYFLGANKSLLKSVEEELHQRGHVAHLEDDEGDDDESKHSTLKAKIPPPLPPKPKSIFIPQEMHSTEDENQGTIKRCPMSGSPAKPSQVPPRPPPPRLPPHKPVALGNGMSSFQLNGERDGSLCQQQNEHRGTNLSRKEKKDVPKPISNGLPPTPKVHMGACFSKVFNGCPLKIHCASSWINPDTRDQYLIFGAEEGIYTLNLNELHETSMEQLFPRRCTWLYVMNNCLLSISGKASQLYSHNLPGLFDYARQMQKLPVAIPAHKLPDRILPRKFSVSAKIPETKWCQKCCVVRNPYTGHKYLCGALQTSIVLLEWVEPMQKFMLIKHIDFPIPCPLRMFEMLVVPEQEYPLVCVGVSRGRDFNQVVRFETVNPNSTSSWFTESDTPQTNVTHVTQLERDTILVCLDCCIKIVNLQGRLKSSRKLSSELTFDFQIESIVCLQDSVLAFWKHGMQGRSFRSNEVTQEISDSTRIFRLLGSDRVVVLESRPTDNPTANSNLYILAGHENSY
# Method in brief: as §1
# FGFR2 = biological target: T20, FGFR2 (Homo sapiens, UniProt P21802); settings: read-out: % Retention on Solid Support
# T20 construct: purchased DiscoveRx KINOMEscan
# Method in brief: as §1
# IKK-epsilon = biological target: T21, IKK-epsilon (Homo sapiens, UniProt Q14164); settings: read-out: % Retention on Solid Support
# T21 construct: purchased DiscoveRx KINOMEscan
# T21 sequence (Q14164 whole entry): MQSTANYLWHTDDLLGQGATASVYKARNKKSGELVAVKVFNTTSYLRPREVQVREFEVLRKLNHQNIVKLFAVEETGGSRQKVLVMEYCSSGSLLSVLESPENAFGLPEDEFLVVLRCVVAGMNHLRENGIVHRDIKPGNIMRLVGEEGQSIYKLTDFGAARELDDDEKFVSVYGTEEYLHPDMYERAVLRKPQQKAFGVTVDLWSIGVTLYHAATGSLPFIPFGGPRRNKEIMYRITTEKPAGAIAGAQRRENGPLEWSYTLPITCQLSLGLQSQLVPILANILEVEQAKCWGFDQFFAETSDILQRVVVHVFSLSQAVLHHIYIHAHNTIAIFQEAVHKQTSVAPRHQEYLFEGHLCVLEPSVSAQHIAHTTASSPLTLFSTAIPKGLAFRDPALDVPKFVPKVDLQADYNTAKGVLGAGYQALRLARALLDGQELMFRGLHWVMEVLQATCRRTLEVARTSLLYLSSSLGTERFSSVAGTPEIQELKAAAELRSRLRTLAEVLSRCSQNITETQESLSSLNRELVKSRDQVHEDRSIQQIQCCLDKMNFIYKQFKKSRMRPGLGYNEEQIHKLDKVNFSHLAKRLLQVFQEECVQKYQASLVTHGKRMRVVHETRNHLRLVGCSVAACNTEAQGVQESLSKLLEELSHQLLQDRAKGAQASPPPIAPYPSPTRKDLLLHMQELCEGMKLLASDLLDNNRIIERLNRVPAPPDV
# Method in brief: as §1
# ARK5 = biological target: T22, ARK5 (Homo sapiens, UniProt O60285)
# T22 construct: purchased DiscoveRx KINOMEscan
# T22 sequence (O60285 whole entry): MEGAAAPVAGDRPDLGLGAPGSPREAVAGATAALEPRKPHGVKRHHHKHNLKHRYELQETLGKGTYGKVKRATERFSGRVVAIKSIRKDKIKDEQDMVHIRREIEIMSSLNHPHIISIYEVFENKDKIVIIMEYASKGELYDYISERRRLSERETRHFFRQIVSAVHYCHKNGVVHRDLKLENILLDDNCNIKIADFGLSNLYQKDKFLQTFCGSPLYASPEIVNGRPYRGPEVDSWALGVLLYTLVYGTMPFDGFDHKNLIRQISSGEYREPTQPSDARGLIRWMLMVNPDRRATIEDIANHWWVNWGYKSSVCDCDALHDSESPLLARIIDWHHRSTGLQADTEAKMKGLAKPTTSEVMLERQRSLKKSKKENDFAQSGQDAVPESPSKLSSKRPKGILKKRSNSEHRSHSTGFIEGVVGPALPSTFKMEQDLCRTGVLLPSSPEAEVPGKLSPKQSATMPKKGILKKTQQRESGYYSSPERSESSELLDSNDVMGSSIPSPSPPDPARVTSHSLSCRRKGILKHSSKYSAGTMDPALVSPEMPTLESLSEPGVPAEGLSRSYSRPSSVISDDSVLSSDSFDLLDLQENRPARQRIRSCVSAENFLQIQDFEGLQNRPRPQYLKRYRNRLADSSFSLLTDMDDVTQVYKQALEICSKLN
# Method in brief: as §1
# ABL1-phosphorylated = biological target: T23, ABL1-phosphorylated (Homo sapiens, UniProt P00519); settings: 1 µM i-CDK9; read-out: % Retention on Solid Support
# T23 construct: purchased DiscoveRx KINOMEscan
# Method in brief: as §1
structure (smiles),measurement,setting,value
"N[C@H]1CC[C@H](Nc2cc(-c3cccc(NCc4cccc(F)c4)n3)c(Cl)cn2)CC1 [i-CDK9, N2′-(trans-4-aminocyclohexyl)-5′-chloro-N6-(3-fluorobenzyl)-2,4′-bipyridine-2′,6-diamine]",remaining binding at 1 µM,RAF1; 1 µM i-CDK9,100%
same,remaining binding at 10 µM,RAF1; 10 µM i-CDK9,100%
same,remaining binding at 1 µM,"GCN2(Kin.Dom.2,S808G); 1 µM i-CDK9",100%
same,remaining binding at 10 µM,"GCN2(Kin.Dom.2,S808G); 10 µM i-CDK9",100%
same,remaining binding at 1 µM,ERBB3; 1 µM i-CDK9,100%
same,remaining binding at 10 µM,ERBB3; 10 µM i-CDK9,100%
same,remaining binding at 1 µM,MKNK2; 1 µM i-CDK9,100%
same,remaining binding at 10 µM,MKNK2; 10 µM i-CDK9,99%
same,remaining binding at 1 µM,ICK; 1 µM i-CDK9,85%
same,remaining binding at 10 µM,ICK; 10 µM i-CDK9,3%
same,% Retention on Solid Support,EGFR(G719C); 1 µM i-CDK9,86%
same,% Retention on Solid Support,EGFR(G719C); 10 µM i-CDK9,46%
same,% Retention on Solid Support,CSK; 1 µM i-CDK9,100%
same,% Retention on Solid Support,CSK; 10 µM i-CDK9,100%
same,remaining binding at 1 µM,CLK1; 1 µM i-CDK9,14%
same,remaining binding at 10 µM,CLK1; 10 µM i-CDK9,0.55%
same,remaining binding at 1 µM,BLK; 1 µM i-CDK9,100%
same,remaining binding at 10 µM,BLK; 10 µM i-CDK9,100%
same,remaining binding at 1 µM,EPHA7; 1 µM i-CDK9,100%
same,remaining binding at 10 µM,EPHA7; 10 µM i-CDK9,96%
same,% Retention on Solid Support,SYK; 1 µM i-CDK9,86%
same,% Retention on Solid Support,SYK; 10 µM i-CDK9,100%
same,remaining binding at 1 µM,MAP3K15; 1 µM i-CDK9,100%
same,remaining binding at 10 µM,MAP3K15; 10 µM i-CDK9,100%
same,remaining binding at 1 µM,KIT(D816V); 1 µM i-CDK9,100%
same,remaining binding at 10 µM,KIT(D816V); 10 µM i-CDK9,100%
same,remaining binding at 1 µM,MLK1; 1 µM i-CDK9,100%
same,remaining binding at 10 µM,MLK1; 10 µM i-CDK9,100%
same,remaining binding at 1 µM,PFPK5(P.falciparum),100%
same,remaining binding at 1 µM,DAPK2; 1 µM i-CDK9,90%
same,remaining binding at 10 µM,DAPK2; 10 µM i-CDK9,80%
same,remaining binding at 1 µM,CAMKK2; 1 µM i-CDK9,73%
same,remaining binding at 10 µM,CAMKK2; 10 µM i-CDK9,100%
same,remaining binding at 1 µM,DYRK2; 1 µM i-CDK9,7.1%
same,remaining binding at 10 µM,DYRK2; 10 µM i-CDK9,33%
same,% Retention on Solid Support,MAP4K3; 1 µM i-CDK9,85%
same,% Retention on Solid Support,MAP4K3; 10 µM i-CDK9,70%
same,remaining binding at 1 µM,FGFR2; 1 µM i-CDK9,97%
same,remaining binding at 10 µM,FGFR2; 10 µM i-CDK9,100%
same,remaining binding at 1 µM,IKK-epsilon; 1 µM i-CDK9,95%
same,remaining binding at 10 µM,IKK-epsilon; 10 µM i-CDK9,100%
same,% Retention on Solid Support,ARK5; 1 µM i-CDK9,72%
same,% Retention on Solid Support,ARK5; 10 µM i-CDK9,100%
same,remaining binding at 1 µM,ABL1-phosphorylated,67%
